# Reference: PMC4767141, “Discovery of Potent, Orally Bioavailable, Small-Molecule Inhibitors of WNT Signaling from a Cell-Based Pathway Screen” (Journal of Medicinal Chemistry, 2015)
# What was measured:
# LOK = target: T1, LOK (Homo sapiens, UniProt O94804); assay: Millipore kinase panel; type: biochemical; conditions: read-out: % Control
# T1 construct: purchased Millipore KinaseProfiler (kinases); Cerep (receptors and ion channels)
# EGFR = target: T2, EGFR (Homo sapiens, UniProt P00533); assay: Millipore kinase panel; type: biochemical; conditions: read-out: % Control
# T2 construct: purchased Millipore KinaseProfiler (kinases); Cerep (receptors and ion channels)
# MELK = target: T3, MELK (Homo sapiens, UniProt Q14680); assay: Millipore kinase panel; type: biochemical; conditions: read-out: % Control
# T3 construct: purchased Millipore KinaseProfiler (kinases); Cerep (receptors and ion channels)
# EPHB2 = target: T4, EPHB2 (Homo sapiens, UniProt P29323); assay: Millipore kinase panel; type: biochemical; conditions: read-out: % Control
# T4 construct: purchased Millipore KinaseProfiler (kinases); Cerep (receptors and ion channels)
# A2A (h) = target: T5, A2A (h) (Homo sapiens, UniProt P29274); assay: CEREP binding panel; conditions: agonist radioligand, read-out: % Inhibition of Control Specific Binding
# T5 construct: purchased Millipore KinaseProfiler (kinases); Cerep (receptors and ion channels)
# JNK3 = target: T6, JNK3 (Homo sapiens, UniProt P53779); assay: Millipore kinase panel; type: biochemical; conditions: read-out: % Control
# T6 construct: purchased Millipore KinaseProfiler (kinases); Cerep (receptors and ion channels)
# EEF-2K = target: T7, EEF-2K (Homo sapiens, UniProt O00418); assay: Millipore kinase panel; type: biochemical; conditions: read-out: % Control
# T7 construct: purchased Millipore KinaseProfiler (kinases); Cerep (receptors and ion channels)
# FLT3 = target: T8, FLT3 (Homo sapiens, UniProt P36888); assay: Millipore kinase panel; type: biochemical; conditions: read-out: % Control
# T8 construct: purchased Millipore KinaseProfiler (kinases); Cerep (receptors and ion channels)
# CDK3/CYCLINE = target: T9, CDK3/CYCLINE (Homo sapiens, UniProt Q00526); assay: Millipore kinase panel; type: biochemical; conditions: read-out: % Control
# T9 construct: purchased Millipore KinaseProfiler (kinases); Cerep (receptors and ion channels)
# CKIT = target: T10, CKIT (Homo sapiens, UniProt P10721); assay: Millipore kinase panel; type: biochemical; conditions: read-out: % Control
# T10 construct: purchased Millipore KinaseProfiler (kinases); Cerep (receptors and ion channels)
# ROS = target: T11, ROS (Homo sapiens, UniProt P08922); assay: Millipore kinase panel; type: biochemical; conditions: read-out: % Control
# T11 construct: purchased Millipore KinaseProfiler (kinases); Cerep (receptors and ion channels)
# CDK2/CYCLINA = target: T12, CDK2/CYCLINA (Homo sapiens, UniProt P24941); assay: Millipore kinase panel; type: biochemical; conditions: read-out: % Control
# T12 construct: purchased Millipore KinaseProfiler (kinases); Cerep (receptors and ion channels)
# IRR = target: T13, IRR (Homo sapiens, UniProt P14616); assay: Millipore kinase panel; type: biochemical; conditions: read-out: % Control
# T13 construct: purchased Millipore KinaseProfiler (kinases); Cerep (receptors and ion channels)
# CB1 (h) = target: T14, CB1 (h) (Homo sapiens, UniProt P21554); assay: CEREP binding panel; conditions: agonist radioligand, read-out: % Inhibition of Control Specific Binding
# T14 construct: purchased Millipore KinaseProfiler (kinases); Cerep (receptors and ion channels)
# SRPK2 = target: T15, SRPK2 (Homo sapiens, UniProt P78362); assay: Millipore kinase panel; type: biochemical; conditions: read-out: % Control
# T15 construct: purchased Millipore KinaseProfiler (kinases); Cerep (receptors and ion channels)
# ROCK-I = target: T16, ROCK-I (Homo sapiens, UniProt Q13464); assay: Millipore kinase panel; type: biochemical; conditions: read-out: % Control
# T16 construct: purchased Millipore KinaseProfiler (kinases); Cerep (receptors and ion channels)
# ASK1 = target: T17, ASK1 (Homo sapiens, UniProt Q99683); assay: Millipore kinase panel; type: biochemical; conditions: read-out: % Control
# T17 construct: purchased Millipore KinaseProfiler (kinases); Cerep (receptors and ion channels)
# FGFR1 = target: T18, FGFR1 (Homo sapiens, UniProt P11362); assay: Millipore kinase panel; type: biochemical; conditions: read-out: % Control
# T18 construct: purchased Millipore KinaseProfiler (kinases); Cerep (receptors and ion channels)
# NEK2 = target: T19, NEK2 (Homo sapiens, UniProt P51955); assay: Millipore kinase panel; type: biochemical; conditions: read-out: % Control
# T19 construct: purchased Millipore KinaseProfiler (kinases); Cerep (receptors and ion channels)
# M1 (h) = target: T20, M1 (h) (Homo sapiens, UniProt P11229); assay: CEREP binding panel; conditions: antagonist radioligand, read-out: % Inhibition of Control Specific Binding
# T20 construct: purchased Millipore KinaseProfiler (kinases); Cerep (receptors and ion channels)
# PHKGAMMA2 = target: T21, PHKGAMMA2 (Homo sapiens, UniProt P15735); assay: Millipore kinase panel; type: biochemical; conditions: read-out: % Control
# T21 construct: purchased Millipore KinaseProfiler (kinases); Cerep (receptors and ion channels)
# NK2 (h) = target: T22, NK2 (h) (Homo sapiens, UniProt P21452); assay: CEREP binding panel; conditions: agonist radioligand, read-out: % Inhibition of Control Specific Binding
# T22 construct: purchased Millipore KinaseProfiler (kinases); Cerep (receptors and ion channels)
# RSK3 = target: T23, RSK3 (Homo sapiens, UniProt Q15349); assay: Millipore kinase panel; type: biochemical; conditions: read-out: % Control
# T23 construct: purchased Millipore KinaseProfiler (kinases); Cerep (receptors and ion channels)
# PTK5 = target: T24, PTK5 (Homo sapiens, UniProt P42685); assay: Millipore kinase panel; type: biochemical; conditions: read-out: % Control
# T24 construct: purchased Millipore KinaseProfiler (kinases); Cerep (receptors and ion channels)
# MKK7BETA = target: T25, MKK7BETA (Homo sapiens, UniProt O14733); assay: Millipore kinase panel; type: biochemical; conditions: read-out: % Control
# T25 construct: purchased Millipore KinaseProfiler (kinases); Cerep (receptors and ion channels)
# BRSK2 = target: T26, BRSK2 (Homo sapiens, UniProt Q8IWQ3); assay: Millipore kinase panel; type: biochemical; conditions: read-out: % Control
# T26 construct: purchased Millipore KinaseProfiler (kinases); Cerep (receptors and ion channels)
# FLT1 = target: T27, FLT1 (Homo sapiens, UniProt P17948); assay: Millipore kinase panel; type: biochemical; conditions: read-out: % Control
# T27 construct: purchased Millipore KinaseProfiler (kinases); Cerep (receptors and ion channels)
# κ (KOP) = target: T28, κ (KOP) (Rattus norvegicus, UniProt P34975); assay: CEREP binding panel; conditions: agonist radioligand, read-out: % Inhibition of Control Specific Binding
# T28 construct: purchased Millipore KinaseProfiler (kinases); Cerep (receptors and ion channels)
# Na+ channel (site 2) = assay: CEREP binding panel; conditions: 10 μM, antagonist radioligand
# DAPK2 = target: T29, DAPK2 (Homo sapiens, UniProt Q9UIK4); assay: Millipore kinase panel; type: biochemical; conditions: read-out: % Control
# T29 construct: purchased Millipore KinaseProfiler (kinases); Cerep (receptors and ion channels)
# M3 (h) = target: T30, M3 (h) (Homo sapiens, UniProt P20309); assay: CEREP binding panel; conditions: antagonist radioligand, read-out: % Inhibition of Control Specific Binding
# T30 construct: purchased Millipore KinaseProfiler (kinases); Cerep (receptors and ion channels)
# MSSK1 = target: T31, MSSK1 (Homo sapiens, UniProt Q9UPE1); assay: Millipore kinase panel; type: biochemical; conditions: read-out: % Control
# T31 construct: purchased Millipore KinaseProfiler (kinases); Cerep (receptors and ion channels)
# TBK1 = target: T32, TBK1 (Homo sapiens, UniProt Q9UHD2); assay: Millipore kinase panel; type: biochemical; conditions: read-out: % Control
# T32 construct: purchased Millipore KinaseProfiler (kinases); Cerep (receptors and ion channels)
# FLT4 = target: T33, FLT4 (Homo sapiens, UniProt P35916); assay: Millipore kinase panel; type: biochemical; conditions: read-out: % Control
# T33 construct: purchased Millipore KinaseProfiler (kinases); Cerep (receptors and ion channels)
# AT1 (h) = target: T34, AT1 (h) (Homo sapiens, UniProt P30556); assay: CEREP binding panel; conditions: antagonist radioligand, read-out: % Inhibition of Control Specific Binding
# T34 construct: purchased Millipore KinaseProfiler (kinases); Cerep (receptors and ion channels)
# TRKA = target: T35, TRKA (Homo sapiens, UniProt P04629); assay: Millipore kinase panel; type: biochemical; conditions: read-out: % Control
# T35 construct: purchased Millipore KinaseProfiler (kinases); Cerep (receptors and ion channels)
# MT1 (ML1A) (h) = target: T36, MT1 (ML1A) (h) (Homo sapiens, UniProt P48039); assay: CEREP binding panel; conditions: agonist radioligand, read-out: % Inhibition of Control Specific Binding
# T36 construct: purchased Millipore KinaseProfiler (kinases); Cerep (receptors and ion channels)
# WNK3 = target: T37, WNK3 (Homo sapiens, UniProt Q9BYP7); assay: Millipore kinase panel; type: biochemical; conditions: read-out: % Control
# T37 construct: purchased Millipore KinaseProfiler (kinases); Cerep (receptors and ion channels)
# MRCKALPHA = target: T38, MRCKALPHA (Homo sapiens, UniProt Q5VT25); assay: Millipore kinase panel; type: biochemical; conditions: read-out: % Control
# T38 construct: purchased Millipore KinaseProfiler (kinases); Cerep (receptors and ion channels)
# PAK2 = target: T39, PAK2 (Homo sapiens, UniProt Q13177); assay: Millipore kinase panel; type: biochemical; conditions: read-out: % Control
# T39 construct: purchased Millipore KinaseProfiler (kinases); Cerep (receptors and ion channels)
# MAPKAP-K3 = target: T40, MAPKAP-K3 (Homo sapiens, UniProt Q16644); assay: Millipore kinase panel; type: biochemical; conditions: read-out: % Control
# T40 construct: purchased Millipore KinaseProfiler (kinases); Cerep (receptors and ion channels)
# GRK7 = target: T41, GRK7 (Homo sapiens, UniProt Q8WTQ7); assay: Millipore kinase panel; type: biochemical; conditions: read-out: % Control
# T41 construct: purchased Millipore KinaseProfiler (kinases); Cerep (receptors and ion channels)
# CHK1 = target: T42, CHK1 (Homo sapiens, UniProt O14757); assay: Millipore kinase panel; type: biochemical; conditions: read-out: % Control
# T42 construct: purchased Millipore KinaseProfiler (kinases); Cerep (receptors and ion channels)
# ALK4 = target: T43, ALK4 (Homo sapiens, UniProt P36896); assay: Millipore kinase panel; type: biochemical; conditions: read-out: % Control
# T43 construct: purchased Millipore KinaseProfiler (kinases); Cerep (receptors and ion channels)
# T31 sequence (Q9UPE1 whole entry): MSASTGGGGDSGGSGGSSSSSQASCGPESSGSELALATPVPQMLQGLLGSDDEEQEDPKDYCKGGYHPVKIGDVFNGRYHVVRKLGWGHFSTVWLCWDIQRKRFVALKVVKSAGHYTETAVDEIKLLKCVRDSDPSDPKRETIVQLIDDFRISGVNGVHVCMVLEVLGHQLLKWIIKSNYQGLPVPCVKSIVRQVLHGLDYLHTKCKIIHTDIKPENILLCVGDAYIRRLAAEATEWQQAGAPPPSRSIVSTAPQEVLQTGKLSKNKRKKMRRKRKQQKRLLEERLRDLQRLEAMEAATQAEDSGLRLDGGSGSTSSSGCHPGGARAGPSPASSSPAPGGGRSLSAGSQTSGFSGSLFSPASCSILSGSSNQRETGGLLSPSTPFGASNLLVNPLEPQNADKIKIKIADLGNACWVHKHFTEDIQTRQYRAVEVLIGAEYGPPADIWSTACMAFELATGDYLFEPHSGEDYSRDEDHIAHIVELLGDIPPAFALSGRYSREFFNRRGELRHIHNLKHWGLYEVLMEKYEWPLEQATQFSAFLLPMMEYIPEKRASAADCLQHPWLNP
# T28 sequence (P34975 whole entry): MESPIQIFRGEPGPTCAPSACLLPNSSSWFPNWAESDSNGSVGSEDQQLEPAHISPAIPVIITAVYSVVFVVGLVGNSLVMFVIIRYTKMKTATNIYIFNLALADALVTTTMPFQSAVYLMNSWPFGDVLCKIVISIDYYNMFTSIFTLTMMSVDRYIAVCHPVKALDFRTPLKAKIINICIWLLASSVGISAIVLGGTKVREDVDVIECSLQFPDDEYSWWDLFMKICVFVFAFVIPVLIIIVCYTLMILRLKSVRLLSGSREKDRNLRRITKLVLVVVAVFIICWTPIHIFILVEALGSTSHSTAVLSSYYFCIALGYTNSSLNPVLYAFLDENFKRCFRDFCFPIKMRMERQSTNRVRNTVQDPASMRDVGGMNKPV
# T14 sequence (P21554 whole entry): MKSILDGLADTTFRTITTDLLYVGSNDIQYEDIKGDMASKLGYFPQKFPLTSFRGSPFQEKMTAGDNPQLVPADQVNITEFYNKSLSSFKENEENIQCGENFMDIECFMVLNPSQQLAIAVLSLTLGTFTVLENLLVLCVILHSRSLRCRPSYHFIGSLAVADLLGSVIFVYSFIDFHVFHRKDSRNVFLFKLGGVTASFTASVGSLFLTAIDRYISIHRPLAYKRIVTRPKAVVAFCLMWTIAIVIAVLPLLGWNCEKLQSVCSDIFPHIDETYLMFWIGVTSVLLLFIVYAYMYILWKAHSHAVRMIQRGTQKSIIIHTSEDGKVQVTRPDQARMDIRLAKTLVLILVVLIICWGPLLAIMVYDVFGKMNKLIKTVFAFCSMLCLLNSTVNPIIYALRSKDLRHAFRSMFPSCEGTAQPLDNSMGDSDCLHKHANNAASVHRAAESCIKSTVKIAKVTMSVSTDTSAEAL
# T20 sequence (P11229 whole entry): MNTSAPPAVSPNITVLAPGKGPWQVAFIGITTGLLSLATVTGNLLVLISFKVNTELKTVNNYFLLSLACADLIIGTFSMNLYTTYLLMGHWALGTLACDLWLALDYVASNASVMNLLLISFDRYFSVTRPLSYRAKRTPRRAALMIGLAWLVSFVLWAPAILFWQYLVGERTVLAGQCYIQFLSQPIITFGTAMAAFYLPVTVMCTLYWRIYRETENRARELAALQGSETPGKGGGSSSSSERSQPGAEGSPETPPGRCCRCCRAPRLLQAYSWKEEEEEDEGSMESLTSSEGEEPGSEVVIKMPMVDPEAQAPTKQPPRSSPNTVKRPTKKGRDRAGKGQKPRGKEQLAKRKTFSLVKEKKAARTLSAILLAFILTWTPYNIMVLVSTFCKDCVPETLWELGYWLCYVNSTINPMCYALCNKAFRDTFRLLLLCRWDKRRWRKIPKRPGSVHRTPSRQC
# T1 sequence (O94804 whole entry): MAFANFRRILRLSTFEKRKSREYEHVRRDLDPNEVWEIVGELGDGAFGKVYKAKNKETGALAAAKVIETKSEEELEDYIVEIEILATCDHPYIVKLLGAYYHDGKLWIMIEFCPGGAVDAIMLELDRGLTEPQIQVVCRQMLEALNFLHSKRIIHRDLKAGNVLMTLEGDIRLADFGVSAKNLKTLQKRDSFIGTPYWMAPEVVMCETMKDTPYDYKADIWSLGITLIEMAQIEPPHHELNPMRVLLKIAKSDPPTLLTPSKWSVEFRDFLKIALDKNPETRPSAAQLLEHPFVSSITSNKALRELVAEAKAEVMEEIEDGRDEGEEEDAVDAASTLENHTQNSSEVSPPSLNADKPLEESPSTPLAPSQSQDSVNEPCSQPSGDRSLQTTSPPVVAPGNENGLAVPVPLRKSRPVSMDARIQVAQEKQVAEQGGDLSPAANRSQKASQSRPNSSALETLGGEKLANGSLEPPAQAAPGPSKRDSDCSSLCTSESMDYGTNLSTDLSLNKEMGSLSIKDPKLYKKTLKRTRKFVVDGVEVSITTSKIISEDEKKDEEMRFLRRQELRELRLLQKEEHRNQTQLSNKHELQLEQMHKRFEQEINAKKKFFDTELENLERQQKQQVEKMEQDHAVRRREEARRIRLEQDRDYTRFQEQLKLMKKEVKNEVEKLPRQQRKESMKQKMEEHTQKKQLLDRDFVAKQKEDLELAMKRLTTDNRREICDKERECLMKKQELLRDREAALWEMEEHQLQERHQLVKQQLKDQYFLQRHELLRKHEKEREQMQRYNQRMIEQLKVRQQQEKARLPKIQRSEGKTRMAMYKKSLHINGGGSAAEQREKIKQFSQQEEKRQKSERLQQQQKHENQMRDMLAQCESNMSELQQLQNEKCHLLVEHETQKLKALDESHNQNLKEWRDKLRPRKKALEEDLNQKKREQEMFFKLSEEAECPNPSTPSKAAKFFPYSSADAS
# T13 sequence (P14616 27-1297): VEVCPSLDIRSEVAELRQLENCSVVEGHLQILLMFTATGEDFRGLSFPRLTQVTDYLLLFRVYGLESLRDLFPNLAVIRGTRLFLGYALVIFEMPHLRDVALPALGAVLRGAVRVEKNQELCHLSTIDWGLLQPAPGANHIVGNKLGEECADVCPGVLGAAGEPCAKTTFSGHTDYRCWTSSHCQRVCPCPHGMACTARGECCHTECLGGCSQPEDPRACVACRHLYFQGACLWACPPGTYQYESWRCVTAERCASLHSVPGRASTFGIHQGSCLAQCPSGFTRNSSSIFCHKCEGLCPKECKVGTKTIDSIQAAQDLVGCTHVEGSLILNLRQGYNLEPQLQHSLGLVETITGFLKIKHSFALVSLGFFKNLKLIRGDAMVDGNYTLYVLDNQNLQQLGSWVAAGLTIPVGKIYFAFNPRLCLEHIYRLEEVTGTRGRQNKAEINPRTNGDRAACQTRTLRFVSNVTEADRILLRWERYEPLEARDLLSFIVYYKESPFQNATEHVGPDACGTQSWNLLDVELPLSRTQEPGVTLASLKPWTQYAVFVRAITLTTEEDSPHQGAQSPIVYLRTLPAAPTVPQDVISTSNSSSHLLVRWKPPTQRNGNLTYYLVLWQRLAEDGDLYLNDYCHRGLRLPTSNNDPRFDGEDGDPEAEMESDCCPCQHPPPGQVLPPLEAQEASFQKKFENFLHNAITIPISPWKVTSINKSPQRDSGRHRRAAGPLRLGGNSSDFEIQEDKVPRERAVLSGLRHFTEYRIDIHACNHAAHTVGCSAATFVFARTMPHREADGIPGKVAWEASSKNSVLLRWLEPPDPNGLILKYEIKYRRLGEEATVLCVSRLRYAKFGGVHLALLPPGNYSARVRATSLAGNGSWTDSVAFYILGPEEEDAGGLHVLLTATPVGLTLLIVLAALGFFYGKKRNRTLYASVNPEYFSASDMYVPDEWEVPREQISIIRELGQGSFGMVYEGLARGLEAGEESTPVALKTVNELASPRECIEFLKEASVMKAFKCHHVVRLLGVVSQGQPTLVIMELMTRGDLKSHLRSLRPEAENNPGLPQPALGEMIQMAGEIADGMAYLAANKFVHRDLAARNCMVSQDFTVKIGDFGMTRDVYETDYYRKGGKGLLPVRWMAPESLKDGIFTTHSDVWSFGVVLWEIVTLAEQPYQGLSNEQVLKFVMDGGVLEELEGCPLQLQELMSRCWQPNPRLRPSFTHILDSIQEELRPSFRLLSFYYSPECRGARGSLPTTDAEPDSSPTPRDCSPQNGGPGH
# T26 sequence (Q8IWQ3 whole entry): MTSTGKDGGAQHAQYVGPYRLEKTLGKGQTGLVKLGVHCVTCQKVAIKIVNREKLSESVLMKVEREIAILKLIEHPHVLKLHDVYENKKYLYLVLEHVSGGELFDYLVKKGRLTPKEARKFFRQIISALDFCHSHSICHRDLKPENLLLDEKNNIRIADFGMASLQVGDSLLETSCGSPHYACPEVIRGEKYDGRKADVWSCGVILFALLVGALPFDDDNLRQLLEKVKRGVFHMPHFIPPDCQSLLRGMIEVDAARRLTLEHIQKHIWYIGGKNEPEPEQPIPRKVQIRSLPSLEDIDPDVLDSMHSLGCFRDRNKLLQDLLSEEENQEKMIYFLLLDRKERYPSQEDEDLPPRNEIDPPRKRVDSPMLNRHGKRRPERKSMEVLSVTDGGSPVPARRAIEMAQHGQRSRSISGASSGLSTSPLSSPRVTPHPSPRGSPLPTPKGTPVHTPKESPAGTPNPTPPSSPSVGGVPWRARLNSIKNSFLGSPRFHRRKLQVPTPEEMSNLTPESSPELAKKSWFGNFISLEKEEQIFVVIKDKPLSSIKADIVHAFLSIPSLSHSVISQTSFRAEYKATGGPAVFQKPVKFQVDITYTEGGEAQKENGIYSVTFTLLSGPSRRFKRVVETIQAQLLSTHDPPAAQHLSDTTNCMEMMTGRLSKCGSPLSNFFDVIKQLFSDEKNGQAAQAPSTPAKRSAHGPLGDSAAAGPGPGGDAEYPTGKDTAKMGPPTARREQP
compound,measurement,setting,value
"O=C1NCCC12CCN(c1c(Cl)cncc1-c1ccc(N3CCOCC3)cc1)CC2 [Compound 44, 8-(3-Chloro-5-(4-morpholin-4-ylphenyl)pyridin-4-yl)-2,8-diazaspiro[4.5]decan-1-one]",remaining activity at 1 µM,LOK,-1%
same,remaining activity at 1 µM,EGFR,5%
same,remaining activity at 1 µM,MELK,-19%
same,remaining activity at 1 µM,EPHB2,-1%
same,inhibition at 10 µM,A2A (h),4%
same,remaining activity at 1 µM,JNK3,11%
same,remaining activity at 1 µM,EEF-2K,-8%
same,remaining activity at 1 µM,FLT3,-7%
same,remaining activity at 1 µM,CDK3/CYCLINE,-7%
same,remaining activity at 1 µM,CKIT,12%
same,remaining activity at 1 µM,ROS,2%
same,remaining activity at 1 µM,CDK2/CYCLINA,-9%
same,remaining activity at 1 µM,IRR,1%
same,inhibition at 10 µM,CB1 (h),1%
same,remaining activity at 1 µM,SRPK2,10%
same,remaining activity at 1 µM,ROCK-I,-7%
same,remaining activity at 1 µM,ASK1,-1%
same,remaining activity at 1 µM,FGFR1,13%
same,remaining activity at 1 µM,NEK2,3%
same,inhibition at 10 µM,M1 (h),12%
same,remaining activity at 1 µM,PHKGAMMA2,10%
same,inhibition at 10 µM,NK2 (h),11%
same,remaining activity at 1 µM,RSK3,1%
same,remaining activity at 1 µM,PTK5,0%
same,remaining activity at 1 µM,MKK7BETA,17%
same,remaining activity at 1 µM,BRSK2,14%
same,remaining activity at 1 µM,FLT1,10%
same,inhibition at 10 µM,κ (KOP),42%
same,% Inhibition of Control Specific Binding,Na+ channel (site 2),15%
same,remaining activity at 1 µM,DAPK2,5%
same,inhibition at 10 µM,M3 (h),47%
same,remaining activity at 1 µM,MSSK1,-10%
same,remaining activity at 1 µM,TBK1,5%
same,remaining activity at 1 µM,FLT4,-5%
same,inhibition at 10 µM,AT1 (h),2%
same,remaining activity at 1 µM,TRKA,17%
same,inhibition at 10 µM,MT1 (ML1A) (h),17%
same,remaining activity at 1 µM,WNK3,0%
same,remaining activity at 1 µM,MRCKALPHA,11%
same,remaining activity at 1 µM,PAK2,12%
same,remaining activity at 1 µM,MAPKAP-K3,-3%
same,remaining activity at 1 µM,GRK7,-2%
same,remaining activity at 1 µM,CHK1,-7%
same,remaining activity at 1 µM,ALK4,14%
